The experiment deals with Vascular endothelial growth factor receptor 2 (Homo sapiens, UniProt P35968). Description: Homogeneous Time-Resolved Fluorescence (HTRF) Enzyme Assay. Conditions: pH 7.5; 22 °C. Here is the method: The assay uses purified GST-Tie-2 or GST-6x His-VEGFR2 interacting with biotinylated peptide substrates. HTRF is based on the proximity of europium cryptate (donor fluorophore)-labeled antiphosphotyrosine and streptavidin labeled with APC (allophycocyanin), which have been brought together by a binding reaction. When the two entities come into close proximity and upon excitation, energy transfer occurs and APC re-emits at 665 nm. The IC50 values for inhibitors were determined by a four-parameter sigmoidal curve fit.
Vascular endothelial growth factor receptor 2, sequence (P35968 whole entry): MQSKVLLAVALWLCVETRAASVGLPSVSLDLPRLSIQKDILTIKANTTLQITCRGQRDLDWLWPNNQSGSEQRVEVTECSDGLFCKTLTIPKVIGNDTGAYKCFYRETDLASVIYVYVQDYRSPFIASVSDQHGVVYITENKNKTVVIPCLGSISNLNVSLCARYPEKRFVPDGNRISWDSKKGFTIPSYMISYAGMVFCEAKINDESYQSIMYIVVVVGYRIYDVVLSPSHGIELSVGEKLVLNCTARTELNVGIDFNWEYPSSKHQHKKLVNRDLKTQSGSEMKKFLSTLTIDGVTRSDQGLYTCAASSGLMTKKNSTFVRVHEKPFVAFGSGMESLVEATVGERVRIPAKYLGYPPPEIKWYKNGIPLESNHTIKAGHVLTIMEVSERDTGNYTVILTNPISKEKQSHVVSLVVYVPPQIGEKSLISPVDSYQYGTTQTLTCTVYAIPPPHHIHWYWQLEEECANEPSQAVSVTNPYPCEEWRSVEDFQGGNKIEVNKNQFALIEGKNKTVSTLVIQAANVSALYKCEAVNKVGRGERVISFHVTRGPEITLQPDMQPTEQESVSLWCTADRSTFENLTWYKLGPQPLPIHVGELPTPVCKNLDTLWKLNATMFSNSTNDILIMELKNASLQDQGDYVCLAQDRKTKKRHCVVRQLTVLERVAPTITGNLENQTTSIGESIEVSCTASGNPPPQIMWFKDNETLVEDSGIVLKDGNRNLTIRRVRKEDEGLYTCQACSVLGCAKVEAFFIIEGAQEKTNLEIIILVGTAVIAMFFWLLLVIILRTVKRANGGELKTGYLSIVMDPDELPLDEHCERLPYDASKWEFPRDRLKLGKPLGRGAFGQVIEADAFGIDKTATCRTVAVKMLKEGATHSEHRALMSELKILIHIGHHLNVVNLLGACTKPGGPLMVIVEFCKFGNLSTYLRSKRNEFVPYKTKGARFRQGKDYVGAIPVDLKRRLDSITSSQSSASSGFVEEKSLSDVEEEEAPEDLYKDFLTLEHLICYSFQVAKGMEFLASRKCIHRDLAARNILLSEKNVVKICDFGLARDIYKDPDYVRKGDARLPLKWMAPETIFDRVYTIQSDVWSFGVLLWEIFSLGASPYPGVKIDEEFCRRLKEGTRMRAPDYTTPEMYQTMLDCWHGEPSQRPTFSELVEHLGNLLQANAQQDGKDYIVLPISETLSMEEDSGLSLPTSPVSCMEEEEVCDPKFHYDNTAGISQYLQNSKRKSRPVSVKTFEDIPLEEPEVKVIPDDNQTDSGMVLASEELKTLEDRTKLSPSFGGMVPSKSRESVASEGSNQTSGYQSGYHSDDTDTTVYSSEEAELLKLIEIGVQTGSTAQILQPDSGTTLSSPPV
(In TR-FRET formats the signal depends on donor and acceptor labels being close together.)

On to `Nc1ncnc2occ(-c3ccc(NC(=O)Nc4cc(C(F)(F)F)cc(C(F)(F)F)c4)cc3)c12` [3-(4-{4-aminofuro[2,3-d]pyrimidin-5-yl}phenyl)-1-[3,5-bis(trifluoromethyl)phenyl]urea], for which the half-maximal inhibitory concentration (IC50) (commonly the concentration at which inhibition is half-maximal) is 138 nM.

`COc1ccc(-c2oc3ncnc(N)c3c2-c2ccc(NC(=O)Nc3cc(C(F)(F)F)ccc3F)cc2)cc1` [3-{4-[4-amino-6-(4-methoxyphenyl)furo[2,3-d]pyrimidin-5-yl]phenyl}-1-[2-fluoro-5-(trifluoromethyl)phenyl]urea] gave an IC50 of 15.5 nM. Against the preceding compound, the IC50 is about 8.9-fold lower.

(Values after BindingDB's records for doi:10.1016/j.bmcl.2006.12.077 (Glaxosmithkline, 2007).)
